Each molecule was assayed against T1, CDK7/Cyclin H/MNAT1 (Homo sapiens, UniProt P50613) (assay: Enzymatic assay for CDK7 (FRET based LANCE Ultra kinase assay)). Conditions: CDK7 over CDK1.
T1 construct: purchased Invitrogen PR6749B
Assay type: biochemical
Method in brief: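 Inhibition was measured at Km ATP by time-resolved FRET between a Eu anti-phospho antibody and a phosphorylated ULight peptide. The enzyme was the purified CDK7/cyclin complex, and data were curve-fitted.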

T1 sequence (P50613 whole entry): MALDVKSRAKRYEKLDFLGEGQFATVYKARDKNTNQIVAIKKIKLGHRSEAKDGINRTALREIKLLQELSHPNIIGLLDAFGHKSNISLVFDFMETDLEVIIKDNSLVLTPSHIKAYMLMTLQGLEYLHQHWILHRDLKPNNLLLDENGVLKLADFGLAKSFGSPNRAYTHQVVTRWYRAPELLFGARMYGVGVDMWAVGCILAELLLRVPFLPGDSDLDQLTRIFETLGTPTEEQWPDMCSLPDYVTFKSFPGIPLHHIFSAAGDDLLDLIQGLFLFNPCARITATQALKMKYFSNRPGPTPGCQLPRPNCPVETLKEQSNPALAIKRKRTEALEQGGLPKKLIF
T1 sequence (P51946 whole entry partner): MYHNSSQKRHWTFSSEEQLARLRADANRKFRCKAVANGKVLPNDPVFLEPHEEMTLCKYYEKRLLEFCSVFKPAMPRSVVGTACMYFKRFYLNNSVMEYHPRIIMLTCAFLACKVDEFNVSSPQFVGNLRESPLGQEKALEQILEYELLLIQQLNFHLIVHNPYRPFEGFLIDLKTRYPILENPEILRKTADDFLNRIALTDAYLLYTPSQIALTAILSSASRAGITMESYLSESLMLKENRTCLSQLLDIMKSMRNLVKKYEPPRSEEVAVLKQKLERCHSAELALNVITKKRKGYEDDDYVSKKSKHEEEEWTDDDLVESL
T1 sequence (P51948 whole entry partner): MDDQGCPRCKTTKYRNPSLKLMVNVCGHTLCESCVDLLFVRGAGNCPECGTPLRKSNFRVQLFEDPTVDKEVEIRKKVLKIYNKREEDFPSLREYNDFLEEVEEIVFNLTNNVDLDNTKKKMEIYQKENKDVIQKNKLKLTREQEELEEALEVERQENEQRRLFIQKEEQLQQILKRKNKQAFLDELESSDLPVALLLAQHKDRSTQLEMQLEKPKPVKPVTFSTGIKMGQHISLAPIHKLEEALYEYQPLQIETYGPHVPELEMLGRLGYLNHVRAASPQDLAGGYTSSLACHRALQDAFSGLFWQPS

SMILES	CDK1/CDK7: Selectivity of CDK7 inhibition over CDK1 inhibition
CCC(O)c1cnn2c(NCc3ccccc3-n3cccn3)nc(N3CCC(N)CC3)nc12 (racemic) [Compound 52]	C (C=less than 20 fold)
CC(C)c1cnn2c(NCc3ccccc3-n3cccn3)cc(N3CCC(N)CC3)nc12 [Compound 1]	B (B=less than 200 fold, but greater than 20 fold)
CC(C)c1cnn2c(NCc3cccc4cccnc34)nc(N3CCC(N)CC3)nc12 [Compound 9]	B (B=less than 200 fold, but greater than 20 fold)
CC(C)(C)c1cnn2c(NCc3ccccc3-n3cccn3)nc(N3CCC(N)CC3)nc12 [Compound 24]	B (B=less than 200 fold, but greater than 20 fold)

Same assay, conditions: CDK7 over CDK2

SMILES	CDK2/CDK7: Selectivity of CDK7 inhibition over CDK2 inhibition
CCC(O)c1cnn2c(NCc3ccccc3-n3cccn3)nc(N3CCC(N)CC3)nc12 (racemic) [Compound 52]	C (C=less than 20 fold)
CC(C)c1cnn2c(NCc3ccccc3-n3cccn3)cc(N3CCC(N)CC3)nc12 [Compound 1]	B (B=less than 200 fold, but greater than 20 fold)
CC(C)c1cnn2c(NCc3cccc4cccnc34)nc(N3CCC(N)CC3)nc12 [Compound 9]	B (B=less than 200 fold, but greater than 20 fold)
CC(C)(C)c1cnn2c(NCc3ccccc3-n3cccn3)nc(N3CCC(N)CC3)nc12 [Compound 24]	B (B=less than 200 fold, but greater than 20 fold)

Same assay, conditions: CDK7 over CDK5

CDK5/CDK7: Selectivity of CDK7 inhibition over CDK5 inhibition	SMILES
C (C=less than 20 fold)	CCC(O)c1cnn2c(NCc3ccccc3-n3cccn3)nc(N3CCC(N)CC3)nc12 (racemic) [Compound 52]
C (C=less than 20 fold)	CC(C)c1cnn2c(NCc3ccccc3-n3cccn3)cc(N3CCC(N)CC3)nc12 [Compound 1]
C (C=less than 20 fold)	CC(C)c1cnn2c(NCc3cccc4cccnc34)nc(N3CCC(N)CC3)nc12 [Compound 9]

SMILES	CDK5/CDK7: Selectivity of CDK7 inhibition over CDK5 inhibition
CC(C)(C)c1cnn2c(NCc3ccccc3-n3cccn3)nc(N3CCC(N)CC3)nc12 [Compound 24]	B (B=less than 200 fold, but greater than 20 fold)

Same assay, conditions: read-out: CDK7 enzymatic activity (IC50 range)

IC50 [nM]	SMILES
< 100	CCC(O)c1cnn2c(NCc3ccccc3-n3cccn3)nc(N3CCC(N)CC3)nc12 (racemic) [Compound 52]
< 100	CC(C)c1cnn2c(NCc3ccccc3-n3cccn3)cc(N3CCC(N)CC3)nc12 [Compound 1]
< 100	CC(C)c1cnn2c(NCc3cccc4cccnc34)nc(N3CCC(N)CC3)nc12 [Compound 9]
< 100	CC(C)(C)c1cnn2c(NCc3ccccc3-n3cccn3)nc(N3CCC(N)CC3)nc12 [Compound 24]

Each molecule was assayed against T2, CDK2/Cyclin A (Homo sapiens, UniProt P24941) (assay: Enzymatic assay for CDK2 (FRET based LANCE Ultra kinase assay)). Conditions: read-out: CDK2 enzymatic activity (IC50 range).
T2 construct: purchased Invitrogen PV6290
Assay type: biochemical
Method in brief: (§1)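 LANCE Ultra TR-FRET: ULight-MBP peptide (68 nM) with ATP at Km, […], 60 min at 23° C. EDTA plus Eu-anti-phospho-MBP added, another 60 min, then 665/615 nm emission read. Compounds tested as 8-dose 4-fold DMSO dilutions.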

IC50 [nM]	SMILES
100 to 1000	CCC(O)c1cnn2c(NCc3ccccc3-n3cccn3)nc(N3CCC(N)CC3)nc12 (racemic) [Compound 52]
> 1000	CC(C)c1cnn2c(NCc3ccccc3-n3cccn3)cc(N3CCC(N)CC3)nc12 [Compound 1]
100 to 1000	CC(C)c1cnn2c(NCc3cccc4cccnc34)nc(N3CCC(N)CC3)nc12 [Compound 9]
100 to 1000	CC(C)(C)c1cnn2c(NCc3ccccc3-n3cccn3)nc(N3CCC(N)CC3)nc12 [Compound 24]

What follows are molecules tested on MOLT-4 (assay: Cellular MOLT-4 viability assay (CellTiter-Glo, 72 hours)). Conditions: Homo sapiens, MOLT4 viability assay.
Assay type: cell-based
Procedure: All cell lines were routinely tested for mycoplasma.
The effect of the CDK7 inhibitor to inhibit the growth of target cancer cells was evaluated through the 72 hours time period of viability assay. Briefly, the candidate cell line ware plated in 96 well plate at the following density of cells respectively. […] DMSO solvent without compound served as a control and final DMSO concentration less than 0.1%. After 72 hours of incubation at 37° C., 5% CO2 incubator, cells were analyzed for the viability using the CellTiter-Glo Luminescent Cell Viability Assay (Promega, Cat #G7570). All viability assays were performed in duplicate and Luminescence was read using an Envision (Perkin Elmer, USA). Data was analyzed using XLfit software.

IC50 [nM]	SMILES
1000 to 10000	CCC(O)c1cnn2c(NCc3ccccc3-n3cccn3)nc(N3CCC(N)CC3)nc12 (racemic) [Compound 52]
1000 to 10000	CC(C)c1cnn2c(NCc3ccccc3-n3cccn3)cc(N3CCC(N)CC3)nc12 [Compound 1]
1000 to 10000	CC(C)c1cnn2c(NCc3cccc4cccnc34)nc(N3CCC(N)CC3)nc12 [Compound 9]
1000 to 10000	CC(C)(C)c1cnn2c(NCc3ccccc3-n3cccn3)nc(N3CCC(N)CC3)nc12 [Compound 24]

These molecules were tested against T3, CDK5/p25 (Homo sapiens, UniProt Q00535) (assay: Enzymatic assay for CDK5 (FRET based LANCE Ultra kinase assay)). Conditions: read-out: CDK5 enzymatic activity (IC50 range).
T3 construct: purchased Invitrogen PR8543B
T3 sequence (Q00535 whole entry): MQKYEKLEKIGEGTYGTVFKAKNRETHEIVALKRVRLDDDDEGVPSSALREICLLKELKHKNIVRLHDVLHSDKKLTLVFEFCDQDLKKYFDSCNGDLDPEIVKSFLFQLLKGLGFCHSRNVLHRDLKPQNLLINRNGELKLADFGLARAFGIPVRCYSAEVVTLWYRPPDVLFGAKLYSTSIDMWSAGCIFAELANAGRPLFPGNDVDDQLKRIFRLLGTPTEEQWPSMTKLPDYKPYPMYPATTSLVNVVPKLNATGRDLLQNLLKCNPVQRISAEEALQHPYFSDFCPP
T3 sequence (Q15078 99-307 partner limits assumed): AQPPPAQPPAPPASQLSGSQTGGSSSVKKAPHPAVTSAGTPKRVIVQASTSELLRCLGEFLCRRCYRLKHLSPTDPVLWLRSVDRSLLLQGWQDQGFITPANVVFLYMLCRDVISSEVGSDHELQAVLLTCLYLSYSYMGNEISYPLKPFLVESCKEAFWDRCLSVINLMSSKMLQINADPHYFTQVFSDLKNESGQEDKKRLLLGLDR
Assay type: biochemical
Method in brief: as §1

IC50 [nM]	SMILES
100 to 1000	CCC(O)c1cnn2c(NCc3ccccc3-n3cccn3)nc(N3CCC(N)CC3)nc12 (racemic) [Compound 52]
100 to 1000	CC(C)c1cnn2c(NCc3ccccc3-n3cccn3)cc(N3CCC(N)CC3)nc12 [Compound 1]
< 100	CC(C)c1cnn2c(NCc3cccc4cccnc34)nc(N3CCC(N)CC3)nc12 [Compound 9]
< 100	CC(C)(C)c1cnn2c(NCc3ccccc3-n3cccn3)nc(N3CCC(N)CC3)nc12 [Compound 24]

What follows are molecules tested against T4, CDK1/Cyclin B (Homo sapiens, UniProt P06493) (assay: Enzymatic assay for CDK1 (FRET based LANCE Ultra kinase assay)). Conditions: read-out: CDK1 enzymatic activity (IC50 range).
T4 construct: purchased Invitrogen PR4768C
T4 sequence (P06493 whole entry): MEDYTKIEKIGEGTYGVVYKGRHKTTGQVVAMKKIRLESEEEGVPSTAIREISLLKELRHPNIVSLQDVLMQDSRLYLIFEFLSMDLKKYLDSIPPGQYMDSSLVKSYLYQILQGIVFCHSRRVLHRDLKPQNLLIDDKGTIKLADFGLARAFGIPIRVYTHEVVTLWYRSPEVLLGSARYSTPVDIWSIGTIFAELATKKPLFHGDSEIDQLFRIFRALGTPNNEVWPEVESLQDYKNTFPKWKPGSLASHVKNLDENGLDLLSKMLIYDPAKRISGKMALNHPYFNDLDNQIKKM
T4 sequence (P14635 whole entry partner): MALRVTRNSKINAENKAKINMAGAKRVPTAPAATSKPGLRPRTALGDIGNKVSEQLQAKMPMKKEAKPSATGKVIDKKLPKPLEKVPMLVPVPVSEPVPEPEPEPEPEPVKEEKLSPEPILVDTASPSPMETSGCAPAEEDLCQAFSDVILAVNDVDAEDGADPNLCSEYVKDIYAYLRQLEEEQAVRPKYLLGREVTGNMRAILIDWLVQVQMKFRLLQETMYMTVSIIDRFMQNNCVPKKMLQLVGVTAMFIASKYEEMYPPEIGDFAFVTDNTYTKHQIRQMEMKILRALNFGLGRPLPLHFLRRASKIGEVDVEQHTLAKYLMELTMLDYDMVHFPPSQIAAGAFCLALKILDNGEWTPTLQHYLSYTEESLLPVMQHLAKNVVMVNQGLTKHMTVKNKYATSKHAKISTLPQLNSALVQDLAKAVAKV
Assay type: biochemical
Method in brief: as §1

IC50 [nM]	SMILES
> 1000	CCC(O)c1cnn2c(NCc3ccccc3-n3cccn3)nc(N3CCC(N)CC3)nc12 (racemic) [Compound 52]
> 1000	CC(C)c1cnn2c(NCc3ccccc3-n3cccn3)cc(N3CCC(N)CC3)nc12 [Compound 1]
100 to 1000	CC(C)c1cnn2c(NCc3cccc4cccnc34)nc(N3CCC(N)CC3)nc12 [Compound 9]
100 to 1000	CC(C)(C)c1cnn2c(NCc3ccccc3-n3cccn3)nc(N3CCC(N)CC3)nc12 [Compound 24]

Each molecule was assayed on H460 (assay: Cellular H460 viability assay (CellTiter-Glo, 72 hours)). Conditions: Homo sapiens, NCI-H460.
Assay type: cell-based
Method in brief: (§2)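 CellTiter-Glo luminescence read in duplicate after 72 h compound exposure (37 °C, 5% CO2); DMSO-only control, final DMSO under 0.1%.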

IC50 [nM]	SMILES
1000 to 10000	CCC(O)c1cnn2c(NCc3ccccc3-n3cccn3)nc(N3CCC(N)CC3)nc12 (racemic) [Compound 52]
< 1000	CC(C)c1cnn2c(NCc3ccccc3-n3cccn3)cc(N3CCC(N)CC3)nc12 [Compound 1]
< 1000	CC(C)c1cnn2c(NCc3cccc4cccnc34)nc(N3CCC(N)CC3)nc12 [Compound 9]
< 1000	CC(C)(C)c1cnn2c(NCc3ccccc3-n3cccn3)nc(N3CCC(N)CC3)nc12 [Compound 24]

These molecules were tested on HCT116 (assay: Cellular HCT116 viability assay (CellTiter-Glo, 72 hours)). Conditions: Homo sapiens, HCT-116.
Assay type: cell-based
Method in brief: as §2

IC50 [nM]	SMILES
> 10000	CCC(O)c1cnn2c(NCc3ccccc3-n3cccn3)nc(N3CCC(N)CC3)nc12 (racemic) [Compound 52]
1000 to 10000	CC(C)c1cnn2c(NCc3ccccc3-n3cccn3)cc(N3CCC(N)CC3)nc12 [Compound 1]
< 1000	CC(C)(C)c1cnn2c(NCc3ccccc3-n3cccn3)nc(N3CCC(N)CC3)nc12 [Compound 24]

Source: patent publication US11945822B2, “Pyrazolo-triazine and/or pyrazolo-pxrimidine derivatives as selective inhibitor of cyclin dependent kinase” (QURIENT CO., LTD., priority 2018, dated 2024)
